This passage reports TGI and GI50 results from PubChem BioAssay (NCI).

SMILES strings stand for the structures.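 Tested at 5 concentrations; 48 h exposure; 96-well plates; endpoints linearly interpolated, else capped at highest concentration. GI50 marks 50% less growth. TGI denotes the concentration required for complete inhibition of growth.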

The first assay relates to OVCAR-8 ovarian. Put plainly: DTP human tumour cell line panel, 48 h.
What is called TGI is the concentration at which net growth stops. As to `CCOC(=O)C1S(=O)(=O)OCCOS1(=O)=O`, the TGI is over 100 µM.
`O=[N+]([O-])c1ccc(-c2ccc(C3=Nn4c(CNc5ccccc5Cl)nnc4SC3)o2)cc1` displayed a TGI of over 100 µM.
In the case of `CCCC(=O)CC(C)C(=O)C(=O)NC12CC3CC(CC(C3)C1)C2` (centres undefined), the TGI is over 100 µM.
The same measure, in the same setting: the figure for `Nc1nc(=S)c2c(ncn2CCO)[nH]1` is over 100 µM; for `CCCCCC/C=C\CCCCCCCCC(=O)c1cccc(OC)c1OC` it is over 100 µM.

In another assay the test system is SF-539 CNS. Briefly: DTP human tumour cell line panel, 48 h.
`CCOC(=O)C1=C(NC)OCC1=O` yielded a TGI of over 100 µM.
As for `CCOC(=O)C1(C)CCC(C(C(=O)O)C(=O)O)CC1=O` (centres undefined), the TGI is over 100 µM.
A word on the GI50: it is the concentration at which growth is held to half of that of the control. For the compound `CCc1ccc(Nc2cc(C)c3ccc(O)cc3n2)cc1`, the GI50 was 5.74 µM and the TGI worked out at 19.1 µM.
With `COc1ccc(Nc2cnc3cc(N)cc(N)c3n2)cc1`, the GI50 is 17.3 µM and the TGI was 36.6 µM.
For the compound `O=C1NC(=O)C2C(=O)NC(=O)C1C2Cc1ccco1` (centres undefined), the TGI was over 100 µM.
For `S=C1SCN(Cc2ccccc2)CN1Cc1ccco1`, the GI50 is 2.24 µM and the total growth inhibition concentration (TGI) came out at 6.68 µM.
Take `COc1ccccc1CNCCN1C(=O)c2ccc3c4c(ccc(c24)C1=O)C(=O)N(CCNCc1ccccc1OC)C3=O`: the GI50 was 0.553 µM and the TGI came to 1.06 µM.
On to `CSc1nc2nc(-c3ccccc3)c(C)c-2c2n1C(C)C(=O)N2` (centres undefined), for which the GI50 is 86.7 µM and the TGI is over 100 µM.
`CC(=O)Nc1ccc(C2CC(c3ccc([N+](=O)[O-])cc3)=Nc3ccccc3S2=O)cc1` (centres undefined) displayed a TGI of 70.2 µM.
Regarding `COc1ccccc1Oc1nccc(-c2c(-c3ccc(F)cc3)ncn2C2CCNCC2)n1`, the GI50 is over 25 µM and the TGI is over 25 µM.
Take `COc1cc(/C=C2\NC(=O)C(Cc3cc(OC)c(OC)c(C)c3OC)N(C(C)=O)C2=O)c(OC)c(C)c1OC` (centres undefined): the TGI was over 100 µM.
Consider `COc1cc(C(=O)/C=C/c2cccc(Nc3ccnc4cc(Cl)ccc34)c2)cc(OC)c1OC`, for which the GI50 is 1.36 µM and the TGI was 2.68 µM.
`O=C1N[C@@H]2CCCC[C@@H]2C12CCCCC2`: the TGI was over 100 µM.
For `C#Cc1ccc(-n2c(/C=C/c3ccc(O)cc3)nc3ncccc3c2=O)cc1`, the GI50 is 2.12 µM and the TGI worked out at 6.1 µM.
The compound `O=C(NCCc1ccccc1)C1C(=O)C(=O)N(CCc2ccccc2)C1=O` (centres undefined) registered a TGI of over 100 µM.
`CCOC(=O)C1S(=O)(=O)OCCOS1(=O)=O` returned a total growth inhibition concentration (TGI) of over 100 µM.
In turn, `O=[N+]([O-])c1ccc(-c2ccc(C3=Nn4c(CNc5ccccc5Cl)nnc4SC3)o2)cc1` had a concentration for total growth inhibition (TGI) of over 100 µM.
The compound `CC(=O)OCC(=O)[C@@]1(O)CC[C@H]2[C@@H]3C[C@H](C)C4=CC(=O)C=C[C@]4(C)[C@@]3(F)[C@@H](O)C[C@@]21C` displayed a TGI of over 100 µM.
Still for that read-out and setting: under `Nc1nc(=S)c2c(ncn2CCO)[nH]1` stands over 100 µM; under `CCCCCC/C=C\CCCCCCCCC(=O)c1cccc(OC)c1OC`, over 100 µM.

For the next assay, the system named is MALME-3M melanoma. Put plainly: DTP human tumour cell line panel, 48 h.
Compound `CCOC(=O)C1=C(NC)OCC1=O` displayed a TGI of over 100 µM.
Compound `CCOC(=O)C1(C)CCC(C(C(=O)O)C(=O)O)CC1=O` (centres undefined) displayed a TGI of over 100 µM.
`CCc1ccc(Nc2cc(C)c3ccc(O)cc3n2)cc1`: the GI50 was 6.19 µM and the TGI worked out at 19 µM.
Consider `COc1ccc(Nc2cnc3cc(N)cc(N)c3n2)cc1`, for which the GI50 was 15.2 µM and the TGI was found to be 39.4 µM.
`COc1cc(/C=C/c2cc(/C=C/c3ccc(O)c(OC)c3)n(C(=O)c3ccccc3Br)n2)ccc1O`: the GI50 was 3.27 µM and the TGI amounted to 43.6 µM.
Compound `O=C1NC(=O)C2C(=O)NC(=O)C1C2Cc1ccco1` (centres undefined) returned a TGI of over 100 µM.
Take `S=C1SCN(Cc2ccccc2)CN1Cc1ccco1`: the GI50 was 8.44 µM and the total growth inhibition concentration (TGI) was determined as 23.5 µM.
As for `COc1ccccc1CNCCN1C(=O)c2ccc3c4c(ccc(c24)C1=O)C(=O)N(CCNCc1ccccc1OC)C3=O`, the GI50 was 0.386 µM and the TGI came out at 1.55 µM.
On to `CSc1nc2nc(-c3ccccc3)c(C)c-2c2n1C(C)C(=O)N2` (centres undefined), for which the GI50 is 43.1 µM and the TGI is over 100 µM.
Taken in the same sequence, the figures for `COc1ccccc1Oc1nccc(-c2c(-c3ccc(F)cc3)ncn2C2CCNCC2)n1` were over 25 µM and over 25 µM.
`COc1cc(/C=C2\NC(=O)C(Cc3cc(OC)c(OC)c(C)c3OC)N(C(C)=O)C2=O)c(OC)c(C)c1OC` (centres undefined): the TGI is over 100 µM.
In the case of `COc1cc(C(=O)/C=C/c2cccc(Nc3ccnc4cc(Cl)ccc34)c2)cc(OC)c1OC`, the GI50 is 1.46 µM and the TGI came to 3.38 µM.
Turning to `O=C1N[C@@H]2CCCC[C@@H]2C12CCCCC2`, the TGI was over 100 µM.
As for `C#Cc1ccc(-n2c(/C=C/c3ccc(O)cc3)nc3ncccc3c2=O)cc1`, the GI50 is 5.13 µM and the total growth inhibition concentration (TGI) is over 100 µM.
`O=C(NCCc1ccccc1)C1C(=O)C(=O)N(CCc2ccccc2)C1=O` (centres undefined) showed a TGI of over 100 µM.
`CCOC(=O)C1S(=O)(=O)OCCOS1(=O)=O` displayed a TGI of over 100 µM.
With `O=[N+]([O-])c1ccc(-c2ccc(C3=Nn4c(CNc5ccccc5Cl)nnc4SC3)o2)cc1`, the TGI is over 100 µM.
In turn, `CCCC(=O)CC(C)C(=O)C(=O)NC12CC3CC(CC(C3)C1)C2` (centres undefined) displayed a TGI of over 100 µM.
Consider `CC(=O)OCC(=O)[C@@]1(O)CC[C@H]2[C@@H]3C[C@H](C)C4=CC(=O)C=C[C@]4(C)[C@@]3(F)[C@@H](O)C[C@@]21C`, for which the TGI is over 100 µM.
`Nc1nc(=S)c2c(ncn2CCO)[nH]1` had a TGI of over 100 µM.
`CCCCCC/C=C\CCCCCCCCC(=O)c1cccc(OC)c1OC` yielded a TGI of over 100 µM.

For a further assay, the system named is HCT-15 colon. Briefly: DTP human tumour cell line panel, 48 h.
`CCOC(=O)C1=C(NC)OCC1=O` had a concentration for total growth inhibition (TGI) of over 100 µM.
Compound `CCOC(=O)C1(C)CCC(C(C(=O)O)C(=O)O)CC1=O` (centres undefined) displayed a TGI of over 100 µM.
As for `CCc1ccc(Nc2cc(C)c3ccc(O)cc3n2)cc1`, the GI50 is 2.95 µM and the total growth inhibition concentration (TGI) was 12.8 µM.
With `COc1cc(/C=C/c2cc(/C=C/c3ccc(O)c(OC)c3)n(C(=O)c3ccccc3Br)n2)ccc1O`, the GI50 was 2.8 µM and the concentration for total growth inhibition (TGI) was over 100 µM.
